Consider 20 molecules from patent US10479780B2, “Aminopyrazole derivatives” (Chugai Seiyaku Kabushiki Kaisha, priority 2015, dated 2019).

Holding throughout (assay type): biochemical
The target in one experiment is T1, human Src enzyme (Homo sapiens, UniProt P12931).
T1 construct: purchased Carna Biosciences, Inc. 08-173
The experiment is described as follows: Src enzyme inhibitory activity (time-resolved fluorometry, biotinylated peptide phosphorylation). The note with it: biotinylated peptide phosphorylation, read-out: SRC_IC50. In outline: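 Compounds were tested for blocking tyrosine phosphorylation of a biotinylated peptide substrate by recombinant human Src. Phosphorylated product was quantified by time-resolved fluorometry using europium cryptate and XL665 conjugates, and IC50 was calculated against the compound-free control.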

The next experiment has as its target T2, human Yes1 enzyme (Homo sapiens, UniProt P07947).
T2 construct: made in house
Put plainly: Yes1 enzyme inhibitory activity (time-resolved fluorometry, biotinylated peptide phosphorylation). The note with it: biotinylated peptide phosphorylation, read-out: YES_IC50. The method in brief:
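Inhibition was expressed against a compound-free control to give IC50, using TR-FRET read-out (Eu-cryptate anti-pTyr antibody, streptavidin-XL665).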

For a further experiment, the target named is T3, human Lck enzyme (Homo sapiens, UniProt P06239).
T3 construct: purchased Carna Biosciences, Inc. 08-170
T3 sequence (P06239 whole entry): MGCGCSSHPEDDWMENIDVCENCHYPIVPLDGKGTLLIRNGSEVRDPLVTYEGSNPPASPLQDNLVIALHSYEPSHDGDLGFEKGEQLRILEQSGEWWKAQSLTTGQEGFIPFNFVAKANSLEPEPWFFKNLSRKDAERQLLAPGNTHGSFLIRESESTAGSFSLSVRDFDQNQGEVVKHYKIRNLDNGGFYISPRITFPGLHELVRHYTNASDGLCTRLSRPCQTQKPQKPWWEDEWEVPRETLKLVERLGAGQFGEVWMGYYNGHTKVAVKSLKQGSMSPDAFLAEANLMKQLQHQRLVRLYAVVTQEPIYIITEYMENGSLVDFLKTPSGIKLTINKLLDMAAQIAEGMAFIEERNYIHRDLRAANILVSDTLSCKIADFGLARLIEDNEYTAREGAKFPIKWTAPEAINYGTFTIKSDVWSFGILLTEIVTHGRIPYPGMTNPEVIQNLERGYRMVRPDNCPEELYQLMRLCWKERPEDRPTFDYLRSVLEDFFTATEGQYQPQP
Put plainly: Lck enzyme inhibitory activity (time-resolved fluorometry, biotinylated peptide phosphorylation). The note with it: biotinylated peptide phosphorylation, read-out: LCK_IC50. In outline:
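Readout pairs a europium cryptate-labelled anti-phosphotyrosine antibody with XL665-streptavidin, measured by time-resolved fluorescence. IC50 derived from percent inhibition against untreated controls.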

T1 sequence (P12931 whole entry): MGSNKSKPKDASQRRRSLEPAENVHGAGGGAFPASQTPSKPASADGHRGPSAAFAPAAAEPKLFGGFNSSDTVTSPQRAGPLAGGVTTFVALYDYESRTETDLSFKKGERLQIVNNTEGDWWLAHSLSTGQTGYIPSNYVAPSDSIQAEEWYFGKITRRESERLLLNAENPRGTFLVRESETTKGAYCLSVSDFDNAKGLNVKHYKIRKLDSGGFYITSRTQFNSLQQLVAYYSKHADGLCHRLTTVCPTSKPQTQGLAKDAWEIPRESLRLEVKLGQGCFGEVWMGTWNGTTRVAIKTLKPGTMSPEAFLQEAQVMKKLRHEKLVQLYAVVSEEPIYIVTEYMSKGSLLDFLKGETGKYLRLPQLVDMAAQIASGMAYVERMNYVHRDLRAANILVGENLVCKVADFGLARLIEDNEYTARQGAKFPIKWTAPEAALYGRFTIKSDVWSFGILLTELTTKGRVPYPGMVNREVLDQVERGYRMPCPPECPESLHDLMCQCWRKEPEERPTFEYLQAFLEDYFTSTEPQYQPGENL
T2 sequence (P07947 whole entry): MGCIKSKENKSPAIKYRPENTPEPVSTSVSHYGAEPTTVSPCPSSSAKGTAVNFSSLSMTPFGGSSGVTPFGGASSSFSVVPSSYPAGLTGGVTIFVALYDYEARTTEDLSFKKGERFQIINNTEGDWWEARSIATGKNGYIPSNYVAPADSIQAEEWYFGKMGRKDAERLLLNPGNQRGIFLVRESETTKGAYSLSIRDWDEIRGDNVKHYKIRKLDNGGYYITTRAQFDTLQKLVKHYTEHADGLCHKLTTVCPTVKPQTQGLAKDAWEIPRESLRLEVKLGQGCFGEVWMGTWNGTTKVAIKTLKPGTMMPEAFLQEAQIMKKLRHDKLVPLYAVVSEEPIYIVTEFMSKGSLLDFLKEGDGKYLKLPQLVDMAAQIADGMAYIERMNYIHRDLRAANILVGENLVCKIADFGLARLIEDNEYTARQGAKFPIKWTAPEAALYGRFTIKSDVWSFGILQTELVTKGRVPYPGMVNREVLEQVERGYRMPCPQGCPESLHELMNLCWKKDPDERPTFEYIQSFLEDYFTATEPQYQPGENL

Take `Cc1cc(Oc2c(F)cccc2F)ncc1-n1ncc(C(=O)c2cc3cc(F)c(N4C(=O)[C@@H]5C[C@@H](O)CN5C4=O)cc3[nH]2)c1N` [Example 5-1-433, (6R,7aS)-2-[2-[5-amino-1-[6-(2,6-difluorophenoxy)-4-methylpyridin-3-yl]pyrazole-4-carbonyl]-5-fluoro-1H-indol-6-yl]-6-hydroxy-5,6,7,7a-tetrahydropyrrolo[1,2-c]imidazole-1,3-dione]: the IC50 on human Src enzyme is 59 nM; on human Yes1 enzyme, 1.2 nM; at human Lck enzyme it was 4.8 nM.
`Cc1cc2cc(C(=O)c3cnn(-c4ccc(Oc5ccccc5F)cc4C)c3N)[nH]c2cc1N1C(=O)CNC1=O` [Example 5-1-434, 3-[2-[5-amino-1-[4-(2-fluorophenoxy)-2-methylphenyl]pyrazole-4-carbonyl]-5-methyl-1H-indol-6-yl]imidazolidine-2,4-dione]: the IC50 at human Src enzyme is 15 nM; at human Yes1 enzyme it was 0.44 nM; on human Lck enzyme it was 4.1 nM.
On the same counts, the results for `Cc1cc2cc(C(=O)c3cnn(-c4ccc(Oc5ccccc5F)cc4C)c3N)[nH]c2cc1N1C(=O)NC(C)(C(F)(F)F)C1=O` (stereo not drawn) [Example 5-1-435, 3-[2-[5-amino-1-[4-(2-fluorophenoxy)-2-methylphenyl]pyrazole-4-carbonyl]-5-methyl-1H-indol-6-yl]-5-methyl-5-(trifluoromethyl) imidazolidine-2,4-dione] are 120 nM, 2 nM and 21 nM.
Regarding `Cc1cc(Oc2ccccc2F)ccc1-n1ncc(C(=O)c2cc3cc(F)c(N4C(=O)N[C@@H](Cc5ccccc5)C4=O)cc3[nH]2)c1N` [Example 5-1-436, (5S)-3-[2-[5-amino-1-[4-(2-fluorophenoxy)-2-methylphenyl]pyrazole-4-carbonyl]-5-fluoro-1H-indol-6-yl]-5-benzylimidazolidine-2,4-dione], the IC50 amounted to 230 nM on human Src enzyme, 1.7 nM at human Yes1 enzyme and 35 nM at human Lck enzyme.
The matching figures for `Cc1cc(Oc2ccccc2F)ccc1-n1ncc(C(=O)c2cc3cc(F)c(N4C(=O)NC5(CCOCC5)C4=O)cc3[nH]2)c1N` [Example 5-1-437, 3-[2-[5-amino-1-[4-(2-fluorophenoxy)-2-methylphenyl]pyrazole-4-carbonyl]-5-fluoro-1H-indol-6-yl]-8-oxa-1,3-diazaspiro[4.5]decane-2,4-dione]: 40 nM, 0.79 nM and 7.8 nM.
Turning to `Cc1cc(Oc2ccccc2F)ccc1-n1ncc(C(=O)c2cc3cc(F)c(N4C(=O)NC5(CCCC5)C4=O)cc3[nH]2)c1N` [Example 5-1-438, 3-[2-[5-amino-1-[4-(2-fluorophenoxy)-2-methylphenyl]pyrazolo-4-carbonyl]-5-fluoro-1H-indol-6-yl]-1,3-diazaspiro[4.4]nonane-2,4-dione], the IC50 came out at 120 nM on human Src enzyme, 1.9 nM at human Yes1 enzyme and 15 nM on human Lck enzyme.
For the molecule `COc1cccc(S(=O)(=O)Nc2cc3[nH]c(C(=O)c4cnn(-c5cnc(Oc6ccccc6F)cc5C)c4N)cc3cc2C)c1` [Example 5-1-439, N-[2-[5-amino-1-[6-(2-fluorophenoxy)-4-methylpyridin-3-yl]pyrazole-4-carbonyl]-5-methyl-1H-indol-6-yl]-3-methoxybenzenesulfonamide], the IC50 at human Src enzyme amounted to 690 nM; at human Yes1 enzyme, 7.3 nM; at human Lck enzyme it was 310 nM.
Turning to `Cc1cc2cc(C(=O)c3cnn(-c4cnc(Oc5ccccc5F)cc4C)c3N)[nH]c2cc1NS(=O)(=O)c1cccc(C#N)c1` [Example 5-1-440, N-[2-[5-amino-1-[6-(2-fluorophenoxy)-4-methylpyridin-3-yl]pyrazole-4-carbonyl]-5-mothyl-1H-indol-6-yl]-3-cyanobenzenesulfonamide], the IC50 on human Src enzyme was 440 nM; on human Yes1 enzyme, 3.7 nM; on human Lck enzyme it was 130 nM.
Turning to `Cc1cc2cc(C(=O)c3cnn(-c4cnc(Oc5ccccc5F)cc4C)c3N)[nH]c2cc1NS(=O)(=O)c1cccnc1` [Example 5-1-441, N-[2-[5-amino-1-[6-(2-fluorophenoxy)-4-methylpyridin-3-yl]pyrazole-4-carbonyl]-5-methyl-1H-indol-6-yl]pyridine-3-sulfonamide], the figures for the IC50 on human Src enzyme, at human Yes1 enzyme and on human Lck enzyme were 280 nM, 1.8 nM and 73 nM, respectively.
The matching figures for `Cc1cc2cc(C(=O)c3cnn(-c4cnc(Oc5c(F)cccc5F)cc4C)c3N)[nH]c2cc1N1C(=O)CNC1=O` [Example 5-1-442, 3-[2-[5-amino-1-[6-(2,6-difluorophenoxy)-4-methylpyridin-3-yl]pyrazolo-4-carbonyl]-5-methyl-1H-indol-6-yl]imidazolidine-2,4-dione]: 21 nM, 1.2 nM and 4.9 nM.
The matching figures for `Cc1cc2cc(C(=O)c3cnn(-c4cnc(Oc5c(F)cccc5F)cc4C)c3N)[nH]c2cc1N1C(=O)N[C@@H](C)C1=O` [Example 5-1-443, (5S)-3-[2-[5-amino-1-[6-(2,6-difluorophenoxy)-4-methylpyridin-3-yl]pyrazole-4-carbonyl]-5-methyl-1H-indol-6-yl]-5-methylimidazolidine-2,4-dione]: 25 nM, 1.4 nM and 4.9 nM.
The matching figures for `Cc1cc2cc(C(=O)c3cnn(-c4ccc(Oc5ccccc5F)cc4C)c3N)[nH]c2cc1N1C(=O)N[C@@H](C)C1=O` [Example 5-1-444, (5S)-3-[2-[5-amino-1-[4-(2-fluorophenoxy)-2-methylphenyl]pyrazole-4-carbonyl]-5-methyl-1H-indol-6-yl]-5-methylimidazolidine-2,4-dione]: 13 nM, 0.65 nM and 3.9 nM.
Regarding `Cc1cc(Oc2ccccc2F)ccc1-n1ncc(C(=O)c2cc3cc(F)c(N4C(=O)CNC4=O)cc3[nH]2)c1N` [Example 5-1-445, 3-[2-[5-amino-1-[4-(2-fluorophenoxy)-2-methylphenyl]pyrazole-4-carbonyl]-5-fluoro-1H-indol-6-yl]imidazolidine-2,4-dione], the IC50 at human Src enzyme turned out to be 12 nM; on human Yes1 enzyme it was 0.54 nM; on human Lck enzyme, 3.1 nM.
As for `Cc1cc(Oc2ccccc2F)ccc1-n1ncc(C(=O)c2cc3cc(F)c(N4C(=O)N[C@@H](CO)C4=O)cc3[nH]2)c1N` [Example 5-1-446, (5S)-3-[2-[5-amino-1-[4-(2-fluorophenoxy)-2-methylphenyl]pyrazole-4-carbonyl]-5-fluoro-1H-indol-6-yl]-5-(hydroxymethyl)imidazolidine-2,4-dione], the IC50 was found to be 13 nM at human Src enzyme, 0.44 nM on human Yes1 enzyme and 2.1 nM on human Lck enzyme.
As to `Cc1cc(Oc2ccccc2F)ccc1-n1ncc(C(=O)c2cc3cc(F)c(N4C(=O)N[C@@H](C(C)C)C4=O)cc3[nH]2)c1N` [Example 5-1-447, (5S)-3-[2-[5-amino-1-[4-(2-fluorophenoxy)-2-methylphenyl]pyrazole-4-carbonyl]-5-fluoro-1H-indol-6-yl]-5-propan-2-ylimidazolidine-2,4-dione], the IC50 at human Src enzyme was 84 nM; on human Yes1 enzyme, 2 nM; at human Lck enzyme it was 12 nM.
For the molecule `Cc1cc(Oc2ccccc2F)ccc1-n1ncc(C(=O)c2cc3cc(F)c(N4C(=O)[C@@H]5CCCN5C4=O)cc3[nH]2)c1N` [Example 5-1-448, (7aS)-2-[2-[5-amino-1-[4-(2-fluorophenoxy)-2-methylphenyl]pyrazole-4-carbonyl]-5-fluoro-1H-indol-6-yl]-5,6,7,7a-tetrahydropyrrolo [1,2-c]imidazole-1,3-dione], the IC50 on human Src enzyme was determined as 23 nM; at human Yes1 enzyme, 1.2 nM; at human Lck enzyme, 3.9 nM.
As for `Cc1cc(Oc2ccccc2F)ccc1-n1ncc(C(=O)c2cc3cc(F)c(N4C(=O)[C@@H]5C[C@@H](O)CN5C4=O)cc3[nH]2)c1N` [Example 5-1-449, (6R,7aS)-2-[2-[5-amino-1-[4-(2-fluorophenoxy)-2-methylphenyl]pyrazole-4-carbonyl]-5-fluoro-1H-indol-6-yl]-6-hydroxy-5,6,7,7a-tetrahydropyrrolo[1,2-c]imidazole-1,3-dione], the IC50 at human Src enzyme is 13 nM; on human Yes1 enzyme, 0.66 nM; at human Lck enzyme, 3.3 nM.
Turning to `Cc1cc(Oc2ccccc2F)ccc1-n1ncc(C(=O)c2cc3cc(F)c(N4C(=O)NC5(CCCCC5)C4=O)cc3[nH]2)c1N` [Example 5-1-450, 3-[2-[5-amino-1-[4-(2-fluorophenoxy)-2-methylphenyl]pyrazole-4-carbonyl]-5-fluoro-1H-indol-6-yl]-1,3-diazaspiro[4.5]decane-2,4-dione], the figures for the IC50 at human Src enzyme, on human Yes1 enzyme and on human Lck enzyme were 150 nM, 3 nM and 22 nM, respectively.
On to `Cc1cc2cc(C(=O)c3cnn(-c4cnc(Oc5c(F)cccc5F)cc4C)c3N)[nH]c2cc1N1C(=O)N[C@@H](CO)C1=O` [Example 5-1-451, (5S)-3-[2-[5-amino-1-[6-(2,6-difluorophenoxy)-4-methylpyridin-3-yl]pyrazole-4-carbonyl]-5-methyl-1H-indol-6-yl]-5-(hydroxymethyl) imidazolidine-2,4-dione], for which the IC50 is 41 nM at human Src enzyme, 0.89 nM on human Yes1 enzyme and 4.6 nM at human Lck enzyme.
`Cc1cc2cc(C(=O)c3cnn(-c4cnc(Oc5c(F)cccc5F)cc4C)c3N)[nH]c2cc1N1C(=O)N[C@@H](Cc2ccccc2)C1=O` [Example 5-1-452, (5S)-3-[2-[5-amino-1-[6-(2,6-difluorophenoxy)-4-methylpyridin-3-yl]pyrazole-4-carbonyl]-5-methyl-1H-indol-6-yl]-5-benzylimidazolidine-2,4-dione]: the IC50 stood at 150 nM on human Src enzyme, 5.4 nM on human Yes1 enzyme and 28 nM on human Lck enzyme.
